Organism: Rattus norvegicus
Experiment: DrugMatrix - Regimen: Daily Repeat
Assay type: toxicity, organism-based, Sprague-Dawley
Set-up: regimen Daily Repeat, gender Male, age 6-8 weeks
Details: in vivo, po, route oral GAVAGE, vehicle .5 % CMC; for ABSOLUTE BASOPHIL / ABSOLUTE EOSINOPHIL / ABSOLUTE LYMPHOCYTE / ABSOLUTE MONOCYTE / ABSOLUTE SEGMENTED NEUTROPHIL / BASOPHIL / EOSINOPHIL / ERYTHROCYTE COUNT / HEMATOCRIT / HEMOGLOBIN / LEUKOCYTE COUNT / LYMPHOCYTE / MEAN CORPUSCULAR HEMOGLOBIN / MEAN CORPUSCULAR HEMOGLOBIN CONCENTRATION / MEAN CORPUSCULAR VOLUME / MONOCYTE / NEUTROPHIL / NUCLEATED RED BLOOD CELLS / PLATELET COUNT: tissue Blood; for ALANINE AMINOTRANSFERASE / ALBUMIN / ALKALINE PHOSPHATASE / ASPARTATE AMINOTRANSFERASE / BLOOD UREA NITROGEN / CARBON DIOXIDE / CHLORIDE / CHOLESTEROL / CREATINE PHOSPHOKINASE / CREATININE / GLUCOSE / LACTATE DEHYDROGENASE / LIPASE / PHOSPHORUS / POTASSIUM / SODIUM / TOTAL BILIRUBIN / TOTAL PROTEIN / URIC ACID: tissue Plasma
[1] = 20 mg/kg, 120 h, dose level Low, time 5 day
[2] = 1600 mg/kg, 72 h, dose level High, time 3 day
[3] = 1600 mg/kg, 120 h, dose level High, time 5 day

Structure (SMILES): NC(=O)N1c2ccccc2CC(=O)c2ccccc21 [OXCARBAZEPINE]
- ABSOLUTE BASOPHIL [1]: 0 CELLS/uL
- ABSOLUTE EOSINOPHIL [1]: 112 CELLS/uL
- ABSOLUTE LYMPHOCYTE [1]: 14390.67 CELLS/uL
- ABSOLUTE MONOCYTE [1]: 0 CELLS/uL
- ABSOLUTE SEGMENTED NEUTROPHIL [1]: 964 CELLS/uL
- BASOPHIL [1]: 0%
- EOSINOPHIL [1]: 0.67%
- ERYTHROCYTE COUNT [1]: 5.76 x10E6/uL
- HEMATOCRIT [1]: 35.97%
- HEMOGLOBIN [1]: 14.53 G/DL
- LEUKOCYTE COUNT [1]: 15.47 x10E3/uL
- LYMPHOCYTE [1]: 93.33%
- MEAN CORPUSCULAR HEMOGLOBIN [1]: 25.2 pg
- MEAN CORPUSCULAR HEMOGLOBIN CONCENTRATION [1]: 40.4 G/DL
- MEAN CORPUSCULAR VOLUME [1]: 62.37 fL
- MONOCYTE [1]: 0%
- NEUTROPHIL [1]: 6%
- NUCLEATED RED BLOOD CELLS [1]: 0.33 /100WBC
- PLATELET COUNT [1]: 1403.33 x10E3/uL
- ALANINE AMINOTRANSFERASE [1]: 47.67 u/L
- ALBUMIN [1]: 4.37 G/DL
- ALKALINE PHOSPHATASE [1]: 374.67 u/L
- ASPARTATE AMINOTRANSFERASE [1]: 83.33 u/L
- BLOOD UREA NITROGEN [1]: 17 mg/dL
- CARBON DIOXIDE [1]: 26.67 mmol/L
- CHLORIDE [1]: 102.33 MEQ/L
- CHOLESTEROL [1]: 67.67 mg/dL
- CREATINE PHOSPHOKINASE [1]: 246.33 u/L
- CREATININE [1]: 0.16 mg/dL
- GLUCOSE [1]: 163.33 mg/dL
- LACTATE DEHYDROGENASE [1]: 115.33 u/L
- LIPASE [1]: 8.67 u/L
- PHOSPHORUS [1]: 12.83 mg/dL
- POTASSIUM [1]: 6.85 MEQ/L
- SODIUM [1]: 146.7 MEQ/L
- TOTAL BILIRUBIN [1]: 0.17 mg/dL
- TOTAL PROTEIN [1]: 6.17 G/DL
- URIC ACID [1]: 2.23 mg/dL
- ABSOLUTE BASOPHIL [2]: 0 CELLS/uL
- ABSOLUTE EOSINOPHIL [2]: 0 CELLS/uL
- ABSOLUTE LYMPHOCYTE [2]: 14109.67 CELLS/uL
- ABSOLUTE MONOCYTE [2]: 56.33 CELLS/uL
- ABSOLUTE SEGMENTED NEUTROPHIL [2]: 1034 CELLS/uL
- BASOPHIL [2]: 0%
- EOSINOPHIL [2]: 0%
- ERYTHROCYTE COUNT [2]: 6.38 x10E6/uL
- HEMATOCRIT [2]: 39.5%
- HEMOGLOBIN [2]: 15.47 G/DL
- LEUKOCYTE COUNT [2]: 15.2 x10E3/uL
- LYMPHOCYTE [2]: 93.33%
- MEAN CORPUSCULAR HEMOGLOBIN [2]: 24.27 pg
- MEAN CORPUSCULAR HEMOGLOBIN CONCENTRATION [2]: 39.2 G/DL
- MEAN CORPUSCULAR VOLUME [2]: 61.93 fL
- MONOCYTE [2]: 0.33%
- NEUTROPHIL [2]: 6.33%
- NUCLEATED RED BLOOD CELLS [2]: 0 /100WBC
- PLATELET COUNT [2]: 1432 x10E3/uL
- ALANINE AMINOTRANSFERASE [2]: 82.67 u/L
- ALBUMIN [2]: 4.43 G/DL
- ALKALINE PHOSPHATASE [2]: 485.33 u/L
- ASPARTATE AMINOTRANSFERASE [2]: 91 u/L
- BLOOD UREA NITROGEN [2]: 16.33 mg/dL
- CARBON DIOXIDE [2]: 31 mmol/L
- CHLORIDE [2]: 101 MEQ/L
- CHOLESTEROL [2]: 73 mg/dL
- CREATINE PHOSPHOKINASE [2]: 195 u/L
- CREATININE [2]: 0.2 mg/dL
- GLUCOSE [2]: 116 mg/dL
- LACTATE DEHYDROGENASE [2]: 266 u/L
- LIPASE [2]: 11 u/L
- PHOSPHORUS [2]: 10.13 mg/dL
- POTASSIUM [2]: 6.83 MEQ/L
- SODIUM [2]: 145.67 MEQ/L
- TOTAL BILIRUBIN [2]: 0.17 mg/dL
- TOTAL PROTEIN [2]: 5.8 G/DL
- URIC ACID [2]: 1.43 mg/dL
- ABSOLUTE BASOPHIL [3]: 0 CELLS/uL
- ABSOLUTE EOSINOPHIL [3]: 0 CELLS/uL
- ABSOLUTE LYMPHOCYTE [3]: 15797.33 CELLS/uL
- ABSOLUTE MONOCYTE [3]: 212.67 CELLS/uL
- ABSOLUTE SEGMENTED NEUTROPHIL [3]: 2156.67 CELLS/uL
- BASOPHIL [3]: 0%
- EOSINOPHIL [3]: 0%
- ERYTHROCYTE COUNT [3]: 5.81 x10E6/uL
- HEMATOCRIT [3]: 36.23%
- HEMOGLOBIN [3]: 14.8 G/DL
- LEUKOCYTE COUNT [3]: 18.17 x10E3/uL
- LYMPHOCYTE [3]: 87.33%
- MEAN CORPUSCULAR HEMOGLOBIN [3]: 25.47 pg
- MEAN CORPUSCULAR HEMOGLOBIN CONCENTRATION [3]: 40.83 G/DL
- MEAN CORPUSCULAR VOLUME [3]: 62.33 fL
- MONOCYTE [3]: 1%
- NEUTROPHIL [3]: 11.67%
- NUCLEATED RED BLOOD CELLS [3]: 0 /100WBC
- PLATELET COUNT [3]: 1349.67 x10E3/uL
- ALANINE AMINOTRANSFERASE [3]: 60.67 u/L
- ALBUMIN [3]: 4.5 G/DL
- ALKALINE PHOSPHATASE [3]: 338.67 u/L
- ASPARTATE AMINOTRANSFERASE [3]: 86.33 u/L
- BLOOD UREA NITROGEN [3]: 17.33 mg/dL
- CARBON DIOXIDE [3]: 23.33 mmol/L
- CHLORIDE [3]: 99 MEQ/L
- CHOLESTEROL [3]: 93.67 mg/dL
- CREATINE PHOSPHOKINASE [3]: 336.33 u/L
- CREATININE [3]: 0.28 mg/dL
- GLUCOSE [3]: 123 mg/dL
- LACTATE DEHYDROGENASE [3]: 512.67 u/L
- LIPASE [3]: 13 u/L
- PHOSPHORUS [3]: 13.6 mg/dL
- POTASSIUM [3]: 7.68 MEQ/L
- SODIUM [3]: 142.17 MEQ/L
- TOTAL BILIRUBIN [3]: 0.23 mg/dL
- TOTAL PROTEIN [3]: 6.43 G/DL
- URIC ACID [3]: 2.07 mg/dL

Source: ChEMBL document CHEMBL3885881, “DrugMatrix”
